Assay results taken from ChEMBL document CHEMBL3867477 (Bioorg Med Chem Lett, 2016).

Columns and labels:
Cytochrome P450 3A4 = Cytochrome P450 3A4 (Homo sapiens, UniProt P08684); test: Inhibition of CYP3A4 (unknown origin); format: ADME
[1] = target: Voltage-dependent L-type calcium channel subunit alpha-1C (Homo sapiens, UniProt Q13936); test: Inhibition of Cav1.2 (unknown origin)
Cytochrome P450 2C9 = Cytochrome P450 2C9 (Homo sapiens, UniProt P11712); test: Inhibition of CYP2C9 (unknown origin); format: ADME
Sequence of Cytochrome P450 2C9 (P11712 whole entry): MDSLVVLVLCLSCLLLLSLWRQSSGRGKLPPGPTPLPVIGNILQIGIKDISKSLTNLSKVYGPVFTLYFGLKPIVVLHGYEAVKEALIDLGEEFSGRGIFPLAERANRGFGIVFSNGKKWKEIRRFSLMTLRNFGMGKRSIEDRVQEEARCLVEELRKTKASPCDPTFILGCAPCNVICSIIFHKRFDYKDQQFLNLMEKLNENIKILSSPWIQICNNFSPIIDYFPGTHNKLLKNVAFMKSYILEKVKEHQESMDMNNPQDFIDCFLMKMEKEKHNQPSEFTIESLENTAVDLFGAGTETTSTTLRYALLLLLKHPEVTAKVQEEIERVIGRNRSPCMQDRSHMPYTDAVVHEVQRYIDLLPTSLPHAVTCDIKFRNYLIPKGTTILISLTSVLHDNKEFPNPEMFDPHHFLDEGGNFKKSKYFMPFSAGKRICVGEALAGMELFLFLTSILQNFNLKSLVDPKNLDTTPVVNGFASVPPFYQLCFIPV

[2] = Displacement of (2S)-N-(2-phenylphenyl)-1-[2-[1-(tritritiomethyl)benzimidazol-2-yl]sulfanylacetyl]pyrrolidine-2-carboxamide from human OX1 receptor Ile408-Val mutant expressed on CHO cell membrane measured after 3 hrs by TopCount method; format: cell membranes
Orexin receptor type 2 [3] = target: T1, Orexin receptor type 2 (Homo sapiens, UniProt O43614); test: Displacement of (2S)-N-(2-pyrrol-1-ylphenyl)-1-[2-[1-(tritritiomethyl)benzimidazol-2-yl]sulfanylacetyl]pyrrolidine-2-carboxamide from human OX2 receptor expressed on CHO cell membrane measured after 3 hrs by TopCount method; format: cell membranes
T1 sequence (O43614 whole entry): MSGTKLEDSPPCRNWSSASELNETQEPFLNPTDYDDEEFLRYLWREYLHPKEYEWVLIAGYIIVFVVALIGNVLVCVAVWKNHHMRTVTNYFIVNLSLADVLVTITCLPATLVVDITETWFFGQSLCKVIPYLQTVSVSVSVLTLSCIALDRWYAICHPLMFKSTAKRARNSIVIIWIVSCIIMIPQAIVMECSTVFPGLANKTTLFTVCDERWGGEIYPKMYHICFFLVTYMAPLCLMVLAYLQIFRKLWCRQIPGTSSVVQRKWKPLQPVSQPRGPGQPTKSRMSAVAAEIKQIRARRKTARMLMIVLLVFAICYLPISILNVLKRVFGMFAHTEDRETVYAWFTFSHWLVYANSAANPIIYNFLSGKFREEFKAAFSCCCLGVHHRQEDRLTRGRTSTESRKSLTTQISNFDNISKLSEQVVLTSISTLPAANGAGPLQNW

CHO = test: Selectivity index, ratio of Ki for human OX2 receptor expressed on CHO cell membrane to Ki for Ile408-Val variant human OX1 receptor expressed on CHO cell membrane; format: cell-based
[4] = Solubility of the compound; format: physicochemical
[5] = Intrinsic clearance in rat liver microsomes; format: ADME; conditions: read-out: CLH
[6] = Oral bioavailability in rat at 10 mg/kg; format: ADME, organism-based; conditions: in vivo
[7] = Clearance in rat at 2 mg/kg, iv; format: ADME, organism-based; conditions: in vivo
Orexin receptor type 2 [8] = target: T2, Orexin receptor type 2 (Rattus norvegicus, UniProt P56719); format: functional
T2 sequence (P56719 whole entry): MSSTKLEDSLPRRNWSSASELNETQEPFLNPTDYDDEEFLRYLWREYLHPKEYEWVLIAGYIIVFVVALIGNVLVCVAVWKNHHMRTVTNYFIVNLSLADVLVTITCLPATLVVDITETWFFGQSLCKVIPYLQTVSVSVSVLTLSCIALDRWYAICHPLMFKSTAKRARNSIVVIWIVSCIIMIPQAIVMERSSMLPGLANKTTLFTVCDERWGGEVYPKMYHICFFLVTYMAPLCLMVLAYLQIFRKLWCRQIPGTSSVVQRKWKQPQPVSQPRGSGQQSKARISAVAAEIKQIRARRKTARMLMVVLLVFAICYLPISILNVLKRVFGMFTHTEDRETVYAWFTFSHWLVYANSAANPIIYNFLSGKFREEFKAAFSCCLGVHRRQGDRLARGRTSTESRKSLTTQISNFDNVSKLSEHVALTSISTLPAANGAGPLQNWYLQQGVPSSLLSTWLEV
Description: Antagonist activity at rat OX2 receptor assessed as inhibition of Ala-6,12 orexin-A-induced calcium increase preincubated for 5 mins prior to Ala-6,12 orexin-A addition measured at 1 sec intervals for 1 min by Fluo-4AM dye-based FLIPR assay

[9] = target: Sodium channel protein type 5 subunit alpha (Homo sapiens, UniProt Q14524); test: Inhibition of Nav1.5 (unknown origin)
[10] = Protein binding in dog plasma; format: ADME, cell-free, Canis lupus familiaris; conditions: read-out: PPB (converted)
[11] = target: T3, Orexin/Hypocretin receptor type 1 (Rattus norvegicus, UniProt P56718); test: Antagonist activity at rat OX1 receptor assessed as inhibition of Ala-6,12 orexin-A-induced calcium increase preincubated for 5 mins prior to Ala-6,12 orexin-A addition measured at 1 sec intervals for 1 min by Fluo-4AM dye-based FLIPR assay; format: functional
T3 sequence (P56718 whole entry): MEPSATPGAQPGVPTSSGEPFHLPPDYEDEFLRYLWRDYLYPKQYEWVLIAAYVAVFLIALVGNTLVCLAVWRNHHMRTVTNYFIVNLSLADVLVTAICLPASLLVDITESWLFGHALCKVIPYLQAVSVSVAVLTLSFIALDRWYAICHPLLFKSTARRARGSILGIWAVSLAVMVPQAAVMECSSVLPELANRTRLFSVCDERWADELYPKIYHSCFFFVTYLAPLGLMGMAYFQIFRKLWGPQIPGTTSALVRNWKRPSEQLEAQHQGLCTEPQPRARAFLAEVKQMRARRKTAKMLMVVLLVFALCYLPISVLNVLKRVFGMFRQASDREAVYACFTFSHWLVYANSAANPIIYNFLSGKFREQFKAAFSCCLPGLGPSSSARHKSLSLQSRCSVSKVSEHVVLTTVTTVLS

[12] = Antagonist activity at human OX1 receptor Ile408-Val mutant expressed on CHO cell membrane assessed as inhibition of Ala-6,12 orexin-A-induced calcium increase preincubated for 5 mins prior to Ala-6,12 orexin-A addition measured at 1 sec intervals for 1 min by Fluo-4AM dye-based FLIPR assay
Orexin receptor type 2 [13] = target: T1, Orexin receptor type 2; format: functional, cell-based, CHO
Description: Antagonist activity at human OX2 receptor expressed on CHO cell membrane assessed as inhibition of Ala-6,12 orexin-A-induced calcium increase preincubated for 5 mins prior to Ala-6,12 orexin-A addition measured at 1 sec intervals for 1 min by Fluo-4AM dye-based FLIPR assay

Rattus norvegicus = species on record: Rattus norvegicus; test: Selectivity index, ratio of IC50 for rat OX2 receptor to IC50 for rat OX1 receptor
[14] = Aqueous solubility of the compound at pH 2; format: physicochemical; conditions: aqueous medium
[15] = Aqueous solubility of the compound at pH 7; format: physicochemical; conditions: aqueous medium
[16] = Protein binding in human plasma; format: ADME, cell-free; conditions: read-out: PPB (converted)

Sequence of Cytochrome P450 3A4 (P08684 whole entry): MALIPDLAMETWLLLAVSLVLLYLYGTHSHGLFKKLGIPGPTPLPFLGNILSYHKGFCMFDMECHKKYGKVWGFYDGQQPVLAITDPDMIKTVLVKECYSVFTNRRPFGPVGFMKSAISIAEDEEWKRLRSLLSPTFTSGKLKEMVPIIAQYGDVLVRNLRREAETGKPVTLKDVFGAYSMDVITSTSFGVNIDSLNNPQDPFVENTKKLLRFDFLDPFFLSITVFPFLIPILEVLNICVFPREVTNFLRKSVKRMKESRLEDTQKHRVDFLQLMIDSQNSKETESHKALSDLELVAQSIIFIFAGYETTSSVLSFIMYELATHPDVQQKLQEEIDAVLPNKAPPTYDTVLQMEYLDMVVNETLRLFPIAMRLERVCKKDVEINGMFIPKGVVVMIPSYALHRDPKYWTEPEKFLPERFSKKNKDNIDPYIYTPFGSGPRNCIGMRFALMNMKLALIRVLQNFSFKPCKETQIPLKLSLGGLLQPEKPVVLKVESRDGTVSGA
Sequence of Voltage-dependent L-type calcium channel subunit alpha-1C (Q13936 whole entry): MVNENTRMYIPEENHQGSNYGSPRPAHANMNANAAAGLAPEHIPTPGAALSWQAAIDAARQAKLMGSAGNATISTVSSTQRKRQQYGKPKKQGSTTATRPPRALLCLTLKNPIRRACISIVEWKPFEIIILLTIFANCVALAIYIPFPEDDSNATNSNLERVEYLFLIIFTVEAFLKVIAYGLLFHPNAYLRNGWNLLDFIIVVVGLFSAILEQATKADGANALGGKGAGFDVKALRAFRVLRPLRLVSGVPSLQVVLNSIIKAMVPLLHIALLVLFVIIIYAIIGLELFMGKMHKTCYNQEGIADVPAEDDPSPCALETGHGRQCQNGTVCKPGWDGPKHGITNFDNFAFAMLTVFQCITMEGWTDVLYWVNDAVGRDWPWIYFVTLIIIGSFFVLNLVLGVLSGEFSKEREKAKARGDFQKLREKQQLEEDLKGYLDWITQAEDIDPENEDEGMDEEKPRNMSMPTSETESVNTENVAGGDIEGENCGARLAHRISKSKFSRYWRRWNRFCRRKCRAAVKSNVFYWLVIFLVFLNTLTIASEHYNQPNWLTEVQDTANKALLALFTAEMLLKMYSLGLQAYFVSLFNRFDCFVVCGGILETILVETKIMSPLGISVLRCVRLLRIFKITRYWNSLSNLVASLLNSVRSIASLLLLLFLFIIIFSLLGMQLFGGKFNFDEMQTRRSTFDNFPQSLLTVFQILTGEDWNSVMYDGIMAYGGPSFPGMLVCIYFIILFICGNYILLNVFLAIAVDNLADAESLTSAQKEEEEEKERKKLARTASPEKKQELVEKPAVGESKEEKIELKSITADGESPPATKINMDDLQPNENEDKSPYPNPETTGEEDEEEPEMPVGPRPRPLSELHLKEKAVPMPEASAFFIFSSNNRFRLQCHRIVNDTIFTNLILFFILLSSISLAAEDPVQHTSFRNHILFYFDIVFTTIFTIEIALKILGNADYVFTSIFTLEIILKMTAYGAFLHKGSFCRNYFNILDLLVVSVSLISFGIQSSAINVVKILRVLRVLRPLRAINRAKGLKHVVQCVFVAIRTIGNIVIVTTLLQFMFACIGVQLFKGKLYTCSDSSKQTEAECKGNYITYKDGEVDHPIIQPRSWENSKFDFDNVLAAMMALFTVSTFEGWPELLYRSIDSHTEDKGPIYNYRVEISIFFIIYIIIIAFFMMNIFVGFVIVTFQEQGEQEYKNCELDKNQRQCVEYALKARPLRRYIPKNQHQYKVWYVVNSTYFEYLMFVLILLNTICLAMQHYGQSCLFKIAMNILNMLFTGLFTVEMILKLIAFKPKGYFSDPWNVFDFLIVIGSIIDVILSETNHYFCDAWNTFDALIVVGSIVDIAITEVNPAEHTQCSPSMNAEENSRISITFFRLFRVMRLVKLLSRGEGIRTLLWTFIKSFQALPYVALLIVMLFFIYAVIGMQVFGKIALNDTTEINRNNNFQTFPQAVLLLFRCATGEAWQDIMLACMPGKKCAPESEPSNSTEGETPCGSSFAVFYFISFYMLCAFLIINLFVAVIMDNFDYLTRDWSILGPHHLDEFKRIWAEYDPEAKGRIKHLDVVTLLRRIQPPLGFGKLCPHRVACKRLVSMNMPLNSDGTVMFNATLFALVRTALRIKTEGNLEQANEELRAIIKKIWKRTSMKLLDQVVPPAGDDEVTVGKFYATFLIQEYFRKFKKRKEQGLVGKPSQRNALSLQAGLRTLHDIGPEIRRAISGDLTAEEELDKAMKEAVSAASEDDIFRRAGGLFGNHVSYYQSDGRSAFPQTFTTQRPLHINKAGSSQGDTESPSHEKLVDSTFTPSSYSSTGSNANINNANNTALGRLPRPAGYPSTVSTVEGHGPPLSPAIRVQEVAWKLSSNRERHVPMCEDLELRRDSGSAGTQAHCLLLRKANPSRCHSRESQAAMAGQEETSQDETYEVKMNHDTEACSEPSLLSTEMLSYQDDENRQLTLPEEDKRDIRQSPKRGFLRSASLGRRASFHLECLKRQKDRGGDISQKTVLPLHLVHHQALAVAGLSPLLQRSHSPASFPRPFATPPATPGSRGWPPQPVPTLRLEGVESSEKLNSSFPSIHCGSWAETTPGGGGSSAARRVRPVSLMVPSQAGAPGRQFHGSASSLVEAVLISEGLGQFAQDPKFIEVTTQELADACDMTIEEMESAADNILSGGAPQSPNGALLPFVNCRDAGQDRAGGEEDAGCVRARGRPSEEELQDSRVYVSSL

| Compound | inhibition (INH) (Cytochrome P450 3A4) | inhibition (INH) (Cytochrome P450 2C9) | Ki (Orexin receptor type 2 [3]) [nM] | solubility [4] | inhibition (INH) [1] | Ki [2] [nM] | Ratio Ki (CHO) | other results |
| --- | --- | --- | --- | --- | --- | --- | --- | --- |
| O=C(c1ccccc1-n1nccn1)N1CCC(F)(F)C(Oc2ccccn2)C1 (centres undefined) | Active | Active | 1040 | Insoluble | Active | 4050 | 0.26 | – |
| O=C(c1ccccc1-n1nccn1)N1CCC(F)(F)[C@@H](Oc2ccc3ccccc3n2)C1 | – | – | – | – | – | 1.3 | 400 to 401 | IC50 (Orexin receptor type 2 [8]): 1310 to 4180 nM; INH [9]: 6.7 µM; INH [1]: 3.8 µM; fraction unbound [10]: < 0.01; IC50 [11]: 11 nM; IC50 [12]: 89 nM; IC50 (Orexin receptor type 2 [13]): 4180 nM; Ratio IC50 (Rattus norvegicus): 119; solubility [14]: < 26 µM; solubility [15]: < 26 µM; fraction unbound [16]: < 0.01 |
| O=C(c1ccccc1-n1nccn1)N1CCC(F)(F)C(Oc2cc(C(F)(F)F)ccn2)C1 (centres undefined) | Active | Active | 14 | Insoluble | Active | 292 | 0.05 | – |

Now from value to compound, other results behind:

| inhibition (INH) (Cytochrome P450 3A4) | inhibition (INH) (Cytochrome P450 2C9) | Ki (Orexin receptor type 2 [3]) [nM] | solubility [4] | Compound | inhibition (INH) [1] | Ki [2] [nM] | Ratio Ki (CHO) | other results |
| --- | --- | --- | --- | --- | --- | --- | --- | --- |
| – | – | 1410 | – | O=C(c1cccc2[nH]cnc12)N1CCC(F)(F)[C@@H](Oc2ccc3ccccc3n2)C1 | – | 3.8 | 371 | CLint scaled [5]: 829 mL/min/kg; bioavailability [6]: 10%; clearance [7]: 69 mL/min/kg |
| Active | Active | 467 | Insoluble | O=C(c1ccccc1-n1nccn1)N1CCC(F)(F)C(Oc2ccc(C(F)(F)F)cn2)C1 (centres undefined) | Active | 14 | 33 | – |
| Active | Active | 277 | Insoluble | O=C(c1ccccc1-n1nccn1)N1CCC(F)(F)C(Oc2ccnc3ccccc23)C1 (centres undefined) | Active | 7970 | 0.035 | – |
| Active | Active | 220 | Insoluble | O=C(c1ccccc1-n1nccn1)N1CCC(F)(F)C(Oc2nc3ccccc3s2)C1 (centres undefined) | Active | 2.3 | 96 | – |
